According to patent US12440476B2, “Agents that target telomerase reverse transcriptase (TERT) for treating cancer and sensitizing cancer cells to genotoxic therapy” (Northwestern University, priority 2022, dated 2025):

Experiments:
[1] = system: MCF7 cells; assay: Clonogenic survival after irradiation (radiosensitivity); format: cell-based, human; conditions: NU-1 0.5 μM
Procedure: (§1) To assess radiosensitivity, MCF7, Saos-2, or CT26 cells were seeded in 6-well plates at 100 cells per well in triplicate, allowed to attach overnight and treated with DMSO or TERT inhibitors at subtoxic concentrations for 1 h prior to IR. MCF7 cells were treated with 0.5 μM NU-1, 10 μM BIBR 1532, or 1 μM MST-312, Saos-2 cells with 1 μM NU-1 or 20 μM BIBR 1532 and CT26 cells with 1 μM NU-1, 20 μM BIBR 1532 or 2 μM MST-312. Doses of 0, 1, 2, 3, 4, or 5 Gy were applied using a GammaCell ^60Co γ-ray source (Nordion) at a dose rate of 7.09 cGy/sec. After that MCF7 and Saos-2 cells were cultured for 3 weeks and CT26 for 2 weeks, then fixed and stained with crystal violet. Colonies of at least 50 cells were counted. Data from three independent biological replicates were acquired. The surviving fraction (SF) was calculated using the following formula: […]

[2] = system: Saos-2 cells; assay: as above; format: cell-based, human; conditions: NU-1 1 μM
Procedure: as §1

[3] = system: CT26 cells; assay: as above; format: cell-based, mouse
Procedure: as §1

[4] = system: MCF7-FUCCI cells; assay: Time-lapse live-cell analysis of cell cycle; format: cell-based, human; conditions: 0.5 μM for 1 h, then 6 Gy, 6 days
Procedure: MCF7-FUCCI cells were seeded at 3×10^4 per well in 6-well plates, allowed to attach overnight, then treated with 0.5 μM NU-2 control, NU-1 or chrolactomycin for 1 h, followed by 6 Gy. Then, live-cell imaging was conducted using the IncuCyteS3. Phase contrast along with green and red channels were acquired at 20× magnification with scanning every 2 h for 6 days. 16 non-overlapping fields were captured for each well. Representative consecutive images were used to create the movies using Fiji (Schindelin et al., 2012).

[5] = system: CT26 cells; assay: Clonogenicity assay (inhibitor alone); format: cell-based, mouse; conditions: 1 μM NU-1, 2 μM MST, 20 μM BIBR
Procedure: MCF7, Saos-2, or CT26 cells were seeded in 6-well plates at 100 cells per well in triplicate and allowed to attach overnight. MCF7 or CT26 cells were then treated with DMSO vehicle or TERT inhibitors in final concentration of 0.25, 0.5, 0.75, 1, 2 μM for NU-1, 2.5, 5, 7.5, 10, 20 μM for BIBR 1532, or 1, 2, 3, 4, 5 μM for MST-312. Saos-2 cells were treated with DMSO vehicle or TERT inhibitors in final concentration of 0.25, 0.5, 0.75, 1, 2 μM for NU-1 or 2.5, 5, 10, 20, 40 μM for BIBR 1532. The final volume of cell culture medium was 3 mL per well. MCF7 and Saos-2 cells were continuously cultured for 3 weeks and CT26 for 2 weeks in the presence of TERT inhibitors, fixed in methanol for 5 min, then stained with 0.5% crystal violet for 10 min at room temperature. After washing with water, the plates were dried at room temperature and imaged with an iBright Imaging System (Thermo Fisher Scientific).

[6] = system: CT26 subcutaneous tumors; assay: Subcutaneous CT26 tumor growth, NU-1 with or without 10 Gy; format: in vivo, BALB/c mice
Procedure: For tumor inoculation, 7-9 week BALB/c mice or NSG mice were subcutaneously injected in the flank with 0.5×10^6 CT26 cells in 100 μL PBS. On Day 9 (tumor average volume ˜30 mm^3), the tumor bearing BALB/c mice were randomly divided into 4 groups of 8, while the NSG mice were randomly divided into 2 groups of 5-6. For NU-1 treatment, 10 mg/kg of NU-1 in 100 μL PBS was injected intraperitoneally once on each of the 2 days before, the day of and 2 days after irradiation. Mouse weight was measured before treatment. Tumor irradiation was conducted on Day 11 using a RadSource RS-2000 X-Ray generator operating at 160 kV and 25 mA at 10 Gy, calibrated by NIST traceable dosimetry. From Day 7 after tumor inoculation, tumors were measured by calipers every 2-3 days and volume calculated using the formula: Tumor volume (mm^3)=length (mm)×width (mm)×width (mm)[…]. On Day 18 after tumor inoculation, tumors from 3 mice under each treatment condition were collected for histology analysis. The rest of the mice were continuously maintained and recorded until at least Day 28 or reaching the humane endpoint for tumor volume. No animals that formed tumors after injection with CT26 cells were excluded from any studies reported here.
CT26 tumors were collected 5 days after treatment (Day 18 after tumor inoculation) and fixed in 10% neutral formalin for 24 h. Formaldehyde-fixed paraffin-embedded (FFPE) tumors were sectioned and stained with hematoxylin and eosin (H&E) by the Human Tissue Resource Center at The University of Chicago. To perform immunofluorescence analysis, tumor sections were deparaffinized in xylene for 10 min, then rehydrated with 95%, 70%, 50%, and 0% ethanol for 5 min each. After that, the tumor section was immersed in 10 mM sodium citrate buffer (pH 6.0) for 30 min at 90° C. for antigen retrieval. Then the tumor sections were blocked in 5% BSA-TBS, stained with anti-Ki67 (1:1000), anti-γH2AX (1:500), anti-CD45 (1:500), anti-CD11c (1:250), anti-CD8 (1:250), anti-granzyme B (1:250) and anti-PD-L1 primary antibodies diluted in 5% BSA-TBS at 4° C. overnight. Followed by washing with TBST, tumor sections were stained with fluorophore-conjugated secondary antibodies (1:2000, Vector Labs) and DAPI (1 μg/mL) diluted in 5% BSA-TBS for 90 min at room temperature. The H&E stained tissue sections were scanned using an Olympus VS200 SlideView Whole Slide Scanner. The fluorescent tumor sections were imaged using a 3i Marianas Spinning Disk Confocal with a 20× objective and pseudo-colored using Fiji. Detailed primary antibody information is provided in Key resources table.

[7] = system: MCF7 cells; conditions: cited from earlier work
[8] = system: A549 cells; conditions: cited from earlier work
[9] = IR + NU-1, tumors removed on Day 18

Question: For `C=C1C(=O)[C@](C)(C(=O)OC)[C@H](CCc2cn(Cc3ccc(F)cc3F)nn2)O[C@@H]1C` [NU-1], which “Radiosensitization in clonogenic survival assay” value ([1]; MCF7, BIBR 10 μM, MST 1 μM, IR 0-5 Gy) is on record?
Answer: strongest effects

Question: And the “Mean SF2 (surviving fraction at 2 Gy)” value ([1]; MCF7 cells, BIBR 1532 10 μM, MST-312 1 μM for 1 h prior to IR, 2 Gy)?
Answer: 0.116

Question: What about the “Radiosensitization in clonogenic survival assay” value ([2]; Saos-2 (telomerase negative), BIBR 20 μM) of the same molecule?
Answer: Neither NU-1 nor BIBR displayed radiosensitization

Question: And the “Mean SF2 (surviving fraction at 2 Gy)” value ([2]; Saos-2 cells, BIBR 1532 20 μM for 1 h prior to IR, 2 Gy)?
Answer: 0.583

Question: What about the “Sensitization of CT26 cells to radiation” value ([3]; CT26, non-toxic doses) of the same molecule?
Answer: sensitized CT26 cells to radiation

Question: What about the “Mean SF2 (surviving fraction at 2 Gy)” value ([3]; CT26 cells, NU-1 1 μM, BIBR 1532 20 μM, MST-312 2 μM for 1 h prior to IR, 2 Gy) of the same molecule?
Answer: 0.322

Question: And the “Surviving cells arrested with G1 marker expression and senescent morphology” value [4]?
Answer: ~80%

Question: What about the “Tolerance in clonogenic assay (inhibitor alone)” value [5] of the same molecule?
Answer: tolerated

Question: What about the “Effect on tumor growth, NU-1 alone” value ([6]; 10 mg/kg IP daily Days 9 to 13, no IR) of the same molecule?
Answer: no appreciable effect

Question: What about the “Tumors eliminated within two weeks after treatment” value ([6]; IR (10 Gy, Day 11) + NU-1 10 mg/kg IP Days 9 to 13) of the same molecule?
Answer: 7 of 8

Question: And the Tumor immune infiltration ([6]; IR + NU-1, Day 18 tumor sections)?
Answer: markedly higher tumor immune infiltration

Question: And the “Tumor recurrence after clearance” value ([6]; IR + NU-1, followed 54 days)?
Answer: did not recur

Question: And the “Ki-67 expression in tumors vs IR alone” value [6, 9]?
Answer: lower expression of proliferation marker Ki-67

Question: And the “Persistent γH2AX in tumors vs IR alone” value [6, 9]?
Answer: upregulation of persistent γH2AX

Question: What about the PD-L1 in tumors ([6]; IR + NU-1 vs IR alone) of the same molecule?
Answer: less increase in PD-L1

Question: What about the LD50 [7] of the same molecule?
Answer: 21 µM

Question: What about the LD50 [8] of the same molecule?
Answer: 35 µM
